Laboratory results published in paper PMC6917776, “Discovery of a chemical probe for PRDM9” (Nature Communications, 2019).

Assays:
RPMI-8226 = assay: CelltiterGlo viability cell assay; type: cell-based; details: 8226, 6 day
Method: (§1) Supplementary Figure 13. […] Viability of
(§2) (a) Multiple Myeloma lines and (b) Breast Cancer cell lines following 3 or 6 days treatment with […]
(§3) manufacturer’s instructions as described in the Supplementary methods. Data are normalized to DMSO control. N=3 biological replicates, +/- SEM. Source data are provided as a Source Data […]
(§4) CelltiterGlo viability cell assay
(§5) Cells were seeded in 96 well plates at per-well densities of 10000 (MDA-MB436, ATCC-HTB130), 15000 (8226, kind gift from Rodger Tiedemann, Princess Margaret Cancer Centre), […]
(§6) kind gift from Rodger Tiedemann, Princess Margaret Cancer Centre) and 50000 (CAL851, kind gift from Mathieu Lupien, Princess Margaret Cancer Centre) and were treated at increasing concentrations of compounds ranging from 0.01 μM to 30 μM and assessed for proliferation using CelltiterGlo (Promega) following manufacturer’s instructions, as readout on days 3 and 6 as indicated. All cell lines were mycoplasma negative, as determined by MycoAlert™ Mycoplasma Detection Kit(Lonza). […]

CAL851 = assay: CelltiterGlo viability cell assay; type: cell-based
Method: as §1, §2, §3, §4, §5, §6

## COc1cc(OC)cc(-c2noc(N3CCN(C)C4(CCN(c5ccccc5)CC4)C3)n2)c1 [MRK-740N]
RPMI-8226; 0.01 uM
  viability Average: 98.95
  viability Replicate 1: 98.27
  viability Replicate 2: 97.90
  viability Replicate 3: 100.68
RPMI-8226; 0.03 uM
  viability Average: 98.07
  viability Replicate 1: 95.77
  viability Replicate 2: 97.65
  viability Replicate 3: 100.80
RPMI-8226; 0.1 uM
  viability Average: 98.68
  viability Replicate 1: 95.86
  viability Replicate 2: 100.16
  viability Replicate 3: 100.02
RPMI-8226; 0.3 uM
  viability Average: 96.98
  viability Replicate 1: 94.57
  viability Replicate 2: 97.72
  viability Replicate 3: 98.63
RPMI-8226; 1 uM
  viability Average: 97.56
  viability Replicate 1: 97.46
  viability Replicate 2: 98.37
  viability Replicate 3: 96.84
RPMI-8226; 3 uM
  viability Average: 100.28
  viability Replicate 1: 98.97
  viability Replicate 2: 101.92
  viability Replicate 3: 99.95
RPMI-8226; 9.5 uM
  viability Average: 107.21
  viability Replicate 1: 106.83
  viability Replicate 2: 105.76
  viability Replicate 3: 109.04
RPMI-8226; 30 uM
  viability Average: 80.58
  viability Replicate 1: 102.03
  viability Replicate 2: 55.75
  viability Replicate 3: 83.98
CAL851; CAL851, 3 day, 0.01 uM
  viability Average: 102.43
  viability Replicate 1: 104.57
  viability Replicate 2: 100.53
  viability Replicate 3: 102.20
CAL851; CAL851, 3 day, 0.03 uM
  viability Average: 101.16
  viability Replicate 1: 95.74
  viability Replicate 2: 100.94
  viability Replicate 3: 106.79
CAL851; CAL851, 3 day, 0.1 uM
  viability Average: 104.74
  viability Replicate 1: 106.32
  viability Replicate 2: 96.40
  viability Replicate 3: 111.49
CAL851; CAL851, 3 day, 0.3 uM
  viability Average: 106.71
  viability Replicate 1: 111.33
  viability Replicate 2: 101.82
  viability Replicate 3: 106.99
CAL851; CAL851, 3 day, 1 uM
  viability Average: 96.30
  viability Replicate 1: 98.38
  viability Replicate 2: 96.24
  viability Replicate 3: 94.27
CAL851; CAL851, 3 day, 3 uM
  viability Average: 97.71
  viability Replicate 1: 91.85
  viability Replicate 2: 95.91
  viability Replicate 3: 105.37
CAL851; CAL851, 3 day, 9.5 uM
  viability Average: 95.86
  viability Replicate 1: 89.90
  viability Replicate 2: 94.75
  viability Replicate 3: 102.94
CAL851; CAL851, 3 day, 30 uM
  viability Average: 88.50
  viability Replicate 1: 89.70
  viability Replicate 2: 92.97
  viability Replicate 3: 82.83
CAL851; CAL851, 6 day, 0.01 uM
  viability Average: 99.23
  viability Replicate 1: 100.50
  viability Replicate 2: 95.18
  viability Replicate 3: 102.02
CAL851; CAL851, 6 day, 0.03 uM
  viability Average: 103.06
  viability Replicate 1: 101.15
  viability Replicate 2: 96.95
  viability Replicate 3: 111.07
CAL851; CAL851, 6 day, 0.1 uM
  viability Average: 96.92
  viability Replicate 1: 94.85
  viability Replicate 2: 96.64
  viability Replicate 3: 99.28
CAL851; CAL851, 6 day, 0.3 uM
  viability Average: 101.38
  viability Replicate 1: 95.47
  viability Replicate 2: 94.74
  viability Replicate 3: 113.94
CAL851; CAL851, 6 day, 1 uM
  viability Average: 102.45
  viability Replicate 1: 100.66
  viability Replicate 2: 100.26
  viability Replicate 3: 106.42
CAL851; CAL851, 6 day, 3 uM
  viability Average: 100.92
  viability Replicate 1: 96.08
  viability Replicate 2: 95.38
  viability Replicate 3: 111.29
CAL851; CAL851, 6 day, 9.5 uM
  viability Average: 96.88
  viability Replicate 1: 95.12
  viability Replicate 2: 99.49
  viability Replicate 3: 96.04
CAL851; CAL851, 6 day, 30 uM
  viability Average: 87.30
  viability Replicate 1: 87.23
  viability Replicate 2: 87.15
  viability Replicate 3: 87.51
